Results from US20250257055A1, “TERTIARY AMIDE DERIVATIVES SUBSTITUTED WITH 4-MEMBERED RING STRUCTURE” (Sumitomo Pharma Co., Ltd., priority 2024, published 2025).
In brackets after ≈: the same amount, converted by molar mass. Read-outs that look alike come from different tables or passages of the source.

Experiments:
[1] = Membrane permeability test (PAMPA); type: in vitro ADME
Protocol: The membrane permeability of the test compound was tested by parallel artificial membrane permeability assay (PAMPA) as follows. 200 μL of System solution (pION Inc.) containing the test compound and 4 μL of GIT Lipid-0 (pION Inc.) were added to the donor plate. 200 μL of Acceptor Sink Buffer (pION Inc.) was added to the acceptor plate. Both plates were overlapped and incubated at 37° C. for 4 hours, after which the UV of the solutions on the acceptor side and donor side was measured using a UV plate reader (190-500 nm). Compounds with poor UV absorption were measured using LC-MS. The permeability coefficient Pe (10^−6 cm/sec) of the drug was calculated using the following equation.

G-401 cells = test: Cell proliferation inhibition experiment using G-401 cells; type: cell-based; details: Homo sapiens, 72 h, cultured for 3 days, CellTiter-Glo
Protocol: G-401 cells (derived from malignant rhabdoid tumor) were obtained from the American Type Culture Collection (ATCC). G-401 cells were cultured in McCoy's 5A medium containing 10% fetal bovine serum and 1% penicillin/streptomycin under conditions of 37° C. and 5% CO2.
(§1) 500 cells per well were seeded in a 384-well plate. One day after seeding, Examples 1 to 35 were added so that the final concentration of DMSO was 0.1%, and the cells were cultured for 3 days. After the culture was completed, the cell viability was measured using CellTiter-Glo Luminescent Cell Viability Assay (Promega, G7570).

recombinant p300 = recombinant p300 (Homo sapiens (Human), UniProt Q09472); test: HAT activity inhibition experiment (SensoLyte HAT(p300) Assay Kit); type: biochemical; details: recombinant p300, histone H3 peptide, acetyl CoA
Protocol: The HAT activity inhibitory ability of HAT inhibitors was evaluated using SensoLyte HAT(p300) Assay Kit (ANASPEC, AS-72172). Specifically, 7.5 μL of the compound of Examples […] diluted with assay buffer was added to 7.5 μL of recombinant p300 solution diluted 10 times with assay buffer, and the mixture was incubated at room temperature for 10 minutes. 7.5 μL of acetyl CoA solution diluted 10 times with assay buffer and 15 μL of histone H3 peptide diluted 10 times with assay buffer were added thereto, and the mixture was incubated at 37° C. for 30 minutes. 37.5 μL of Stop Solution was added to stop the reaction. 75 μL of p300 Developer solution diluted 50 times with assay buffer was added, and the mixture was incubated at room temperature for 30 minutes under light-shielded conditions. The fluorescence at 513 nm when irradiated with 389 nm excitation light was measured using a multiplate reader.

[2] = Pharmacokinetic study in mice; type: in vivo; details: for AUC / clearance / half-life / Vd / Cmax: female, BALB/c (BALB/cAnN CrlCrlj), mouse, plasma; for Vd: read-out: Vdss
Protocol: The test compound was administered to 7-week-old female BALB/c (BALB/cAnN CrlCrlj) mice intravenously (dosage: 1 mg/kg) in a 50% PEG solution (0.01 mol/L HCl) or orally (dosage: 10 mg/kg) in a 0.5% methylcellulose aqueous solution, and blood was collected at the following times:
Intravenous administration: 5 min, 15 min, 30 min, 1 hr, 2 hr, 4 hr, 6 hr, and 24 hr after administration
Oral administration: 15 min, 30 min, 1 hr, 2 hr, 4 hr, 6 hr, and 24 hr after administration
The collected blood was centrifuged at 3000 rpm×10 min using a refrigerated centrifuge set at 4° C., and the obtained plasma was measured by LC-MS. A calibration curve was prepared from the value (peak ratio) obtained by dividing the peak area of the test substance by the peak area of the internal standard substance in MS and the concentration of the plasma calibration curve sample. The concentration in the sample was calculated from the peak ratio and the calibration curve of each sample.

Kuramochi cells = test: Cell proliferation inhibition experiment using Kuramochi cells; type: cell-based; details: 144 h, cultured for 6 days, CellTiter-Glo
Protocol: Kuramochi cells (derived from ovarian cancer) were obtained from JCRB (Japanese Collection of Research Bioresources) cell bank. Kuramochi cells were cultured in RPMI-1640 medium containing 10% fetal bovine serum and 1% penicillin/streptomycin under conditions of 37° C. and 5% CO2.
as §1, with “Examples 3, 7, 9, 10, 11, 20, 23” for “Examples 1”, “to 25, and 30 to 34” for “to 35”, “for 6” for “for 3”

Solubility test = type: physicochemical; details: aqueous buffer, thermodynamic from solid, 5° C., overnight
Protocol: The solubility was measured for Examples 7, 10, 20, 23, 24, and 30 to 34, Comparative Example 1, and Comparative Example 2. The test compound was added to 10 mmol/L glycine buffer (pH 2.0) and 10 mmol/L citrate buffer (pH 3.0), and the mixture was stored in a thermostatic chamber at 5° C. After standing overnight, the mixture was filtered through a membrane filter, and the concentration of the filtrate was measured by HPLC.

[3] = pH 5.0, 37° C., read-out: pH 5.0 Pe
[4] = pH 7.4, 37° C., read-out: pH 7.4 Pe
[5] = 10 mmol/L citrate buffer (pH 3.0), read-out: Solubility in pH 3.0 buffer
[6] = 10 mmol/L glycine buffer (pH 2.0), read-out: Solubility in pH 2.0 buffer

recombinant p300, sequence (Q09472 whole entry): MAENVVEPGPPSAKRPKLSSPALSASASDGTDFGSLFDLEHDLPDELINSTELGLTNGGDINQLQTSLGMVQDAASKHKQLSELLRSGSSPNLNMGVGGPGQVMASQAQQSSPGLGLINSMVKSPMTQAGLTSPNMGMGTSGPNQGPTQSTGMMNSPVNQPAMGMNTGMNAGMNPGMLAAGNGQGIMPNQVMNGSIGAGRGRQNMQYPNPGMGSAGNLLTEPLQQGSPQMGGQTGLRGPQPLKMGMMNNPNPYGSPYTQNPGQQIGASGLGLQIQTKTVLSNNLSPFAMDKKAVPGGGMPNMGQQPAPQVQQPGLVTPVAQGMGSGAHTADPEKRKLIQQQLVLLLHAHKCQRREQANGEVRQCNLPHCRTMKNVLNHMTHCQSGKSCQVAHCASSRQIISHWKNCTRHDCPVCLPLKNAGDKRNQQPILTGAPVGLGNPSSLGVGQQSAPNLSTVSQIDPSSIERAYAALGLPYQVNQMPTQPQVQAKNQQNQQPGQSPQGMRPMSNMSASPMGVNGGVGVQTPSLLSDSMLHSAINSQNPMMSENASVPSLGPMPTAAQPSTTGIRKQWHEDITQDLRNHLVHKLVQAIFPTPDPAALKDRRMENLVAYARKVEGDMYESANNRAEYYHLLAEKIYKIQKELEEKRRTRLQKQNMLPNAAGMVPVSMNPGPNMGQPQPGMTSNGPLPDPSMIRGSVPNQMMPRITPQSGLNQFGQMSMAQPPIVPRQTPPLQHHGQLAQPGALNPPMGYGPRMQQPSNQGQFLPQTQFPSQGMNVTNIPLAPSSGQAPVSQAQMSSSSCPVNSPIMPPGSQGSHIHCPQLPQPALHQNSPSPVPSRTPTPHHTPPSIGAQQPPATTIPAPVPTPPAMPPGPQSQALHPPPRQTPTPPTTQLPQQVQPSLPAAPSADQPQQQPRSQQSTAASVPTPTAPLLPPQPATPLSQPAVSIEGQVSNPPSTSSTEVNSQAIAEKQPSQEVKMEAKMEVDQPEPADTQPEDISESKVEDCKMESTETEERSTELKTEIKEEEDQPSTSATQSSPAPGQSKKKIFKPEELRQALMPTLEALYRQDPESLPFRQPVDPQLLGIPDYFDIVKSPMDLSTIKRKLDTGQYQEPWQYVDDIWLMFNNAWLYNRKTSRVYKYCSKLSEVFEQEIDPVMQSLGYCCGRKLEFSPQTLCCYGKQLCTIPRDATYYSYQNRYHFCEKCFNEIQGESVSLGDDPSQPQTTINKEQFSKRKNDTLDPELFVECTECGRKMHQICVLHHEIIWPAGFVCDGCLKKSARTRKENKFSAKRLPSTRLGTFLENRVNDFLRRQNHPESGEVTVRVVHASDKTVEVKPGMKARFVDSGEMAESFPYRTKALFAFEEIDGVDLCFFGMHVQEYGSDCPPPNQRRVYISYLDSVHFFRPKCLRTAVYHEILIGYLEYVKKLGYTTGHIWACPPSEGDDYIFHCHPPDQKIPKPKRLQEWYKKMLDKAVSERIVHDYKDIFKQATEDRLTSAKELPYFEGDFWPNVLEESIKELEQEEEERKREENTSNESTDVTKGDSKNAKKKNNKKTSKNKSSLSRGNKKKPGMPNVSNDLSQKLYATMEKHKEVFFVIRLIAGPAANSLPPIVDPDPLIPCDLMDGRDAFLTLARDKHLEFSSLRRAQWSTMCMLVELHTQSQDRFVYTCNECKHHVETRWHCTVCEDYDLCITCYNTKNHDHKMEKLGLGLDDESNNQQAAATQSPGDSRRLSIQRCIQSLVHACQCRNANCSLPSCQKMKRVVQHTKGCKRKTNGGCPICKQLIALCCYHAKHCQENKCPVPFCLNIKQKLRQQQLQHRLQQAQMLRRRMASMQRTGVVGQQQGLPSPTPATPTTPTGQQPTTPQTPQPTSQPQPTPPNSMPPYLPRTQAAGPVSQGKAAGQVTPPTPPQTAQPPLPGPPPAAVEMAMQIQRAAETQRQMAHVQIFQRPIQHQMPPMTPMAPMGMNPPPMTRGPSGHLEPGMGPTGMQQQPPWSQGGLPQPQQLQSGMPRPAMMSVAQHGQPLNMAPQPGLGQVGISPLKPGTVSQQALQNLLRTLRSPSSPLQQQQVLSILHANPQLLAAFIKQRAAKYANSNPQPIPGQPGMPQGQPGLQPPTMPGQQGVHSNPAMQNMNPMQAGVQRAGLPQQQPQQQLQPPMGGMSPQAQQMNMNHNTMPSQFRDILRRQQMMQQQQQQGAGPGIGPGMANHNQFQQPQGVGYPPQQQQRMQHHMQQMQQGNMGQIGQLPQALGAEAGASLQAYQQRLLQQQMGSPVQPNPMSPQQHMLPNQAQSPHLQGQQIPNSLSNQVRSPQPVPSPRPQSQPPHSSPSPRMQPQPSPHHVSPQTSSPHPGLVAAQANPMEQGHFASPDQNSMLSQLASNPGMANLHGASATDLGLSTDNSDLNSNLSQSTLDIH

Compound | Papp at 4 h [1, 3] [×10⁻⁶ cm/s] | Papp at 4 h [1, 4] [×10⁻⁶ cm/s] | IC50 (G-401 cells) [nM] | IC50 (recombinant p300) [nM] | AUC ([2]; intravenous, 1 mg/kg) [ng·h/mL] | clearance ([2]; intravenous, 1 mg/kg) [mL/min/kg] | half-life ([2]; intravenous, 1 mg/kg) [h] | Vd ([2]; intravenous, 1 mg/kg) [L/kg] | AUC ([2]; oral, 10 mg/kg) [ng·h/mL] | Cmax ([2]; oral, 10 mg/kg) [ng/mL] | BA ([2]; oral, 10 mg/kg) [%] | IC50 (Kuramochi cells) [nM] | solubility (Solubility test; [5]) [µg/mL] | solubility (Solubility test; [6]) [µg/mL]
O=C1N[C@]2(CCc3cc(-c4cnn(C5CN(C6COC6)C5)c4)ccc32)C(=O)N1CC(=O)N(Cc1ccc(F)cc1)C1(C(F)(F)F)COC1 [Example 1, N-[(4-fluorophenyl)methyl]-2-[(1′S)-5′-{1-[1-(oxetan-3-yl)azetidin-3-yl]-1H-pyrazol-4-yl}-2,5-dioxo-2′,3′-dihydrospiro[imidazolidine-4,1′-inden]-1-yl]-N-[3-(trifluoromethyl)oxetan-3-yl]acetamide] | 16.2 | 20.6 | 181 | 16 | 575 | 28.6 | 1.1 | 1.8 | 4350 | 3770 | 75.7 |  |  | 
O=C1N[C@]2(C[C@@H](F)c3cc(-c4cnn(C5CN(C6COC6)C5)c4)ccc32)C(=O)N1CC(=O)N(Cc1ccc(F)cc1)C1(C(F)(F)F)CC(F)(F)C1 [Example 4, N-[3,3-difluoro-1-(trifluoromethyl)cyclobutyl]-2-[(1′S,3′R)-3′-fluoro-5′-{1-[1-(oxetan-3-yl)azetidin-3-yl]-1H-pyrazol-4-yl}-2,5-dioxo-2′,3′-dihydrospiro[imidazolidine-4,1′-inden]-1-yl]-N-[(4-fluorophenyl)methyl]acetamide] | 25.7 | 31.2 | 43 | 0.5 | 2100 | 6.8 | 2.3 | 1.2 | 28700 | 8300 | 136.3 |  |  | 
O=C1N[C@]2(CCc3cc(-c4cnn(C5CN(C6COC6)C5)c4)ccc32)C(=O)N1CC(=O)N(Cc1ccc(F)cc1)C1(C(F)(F)F)CC(F)(F)C1 [Example 5, N-[3,3-difluoro-1-(trifluoromethyl)cyclobutyl]-N-[(4-fluorophenyl)methyl]-2-[(1'S)-5′-{1-[1-(oxetan-3-yl)azetidin-3-yl]-1H-pyrazol-4-yl}-2,5-dioxo-2′,3′-dihydrospiro[imidazolidine-4,1′-inden]-1-yl]acetamide] | 25.4 | 28.4 | 88 | 6.1 | 875 | 17.6 | 1.75 | 2.1 | 7300 | 3500 | 83.4 |  |  | 
CN1CC(N(Cc2ccc(F)cc2)C(=O)CN2C(=O)N[C@]3(CCc4cc(-c5cnn(C)c5)ccc43)C2=O)(C(F)(F)F)C1 [Example 12, N-[(4-fluorophenyl)methyl]-2-[(1′S)-5′-(1-methyl-1H-pyrazol-4-yl)-2,5-dioxo-2′,3′-dihydrospiro[imidazolidine-4,1′-inden]-1-yl]-N-[1-methyl-3-(trifluoromethyl)azetidin-3-yl]acetamide] | 24 | 28.9 | 82 | 6.3 | 465 | 35.7 | 0.97 | 1.6 | 1400 | 1290 | 30.0 |  |  | 
CN1CC(N(Cc2ccc(F)cc2)C(=O)CN2C(=O)N[C@]3(C[C@@H](F)c4cc(-c5cnn(C)c5)c(F)cc43)C2=O)(C(F)(F)F)C1 [Example 29, 2-[(1′S,3′R)-3′,6′-difluoro-5′-(1-methyl-1H-pyrazol-4-yl)-2,5-dioxo-2′,3′-dihydrospiro[imidazolidine-4,1′-inden]-1-yl]-N-[(4-fluorophenyl)methyl]-N-[1-methyl-3-(trifluoromethyl)azetidin-3-yl]acetamide] | 23.9 | 28.3 | 17 | 2.8 |  |  |  |  |  |  |  |  |  | 
CCn1cc(-c2ccc3c(c2)[C@H](F)C[C@]32NC(=O)N(CC(=O)N(Cc3ccc(F)cc3)C3(C(F)(F)F)CN(C)C3)C2=O)cn1 [Example 30, 2-[(1′S,3′R)-5′-(1-ethyl-1H-pyrazol-4-yl)-3′-fluoro-2,5-dioxo-2′,3′-dihydrospiro[imidazolidine-4,1′-inden]-1-yl]-N-[(4-fluorophenyl)methyl]-N-[1-methyl-3-(trifluoromethyl)azetidin-3-yl]acetamide] | 30.6 | 35 | 2 | 1.5 |  |  |  |  |  |  |  | 10 | 1700 (≈ 2.76 mM) | 8800 (≈ 14.3 mM)
CC(C)n1cc(-c2ccc3c(c2)[C@H](F)C[C@]32NC(=O)N(CC(=O)N(Cc3ccc(F)cc3)C3(C(F)(F)F)CN(C)C3)C2=O)cn1 [Example 31, 2-{(1′S,3′R)-3′-fluoro-2,5-dioxo-5′-[1-(propan-2-yl)-1H-pyrazol-4-yl]-2′,3′-dihydrospiro[imidazolidine-4,1′-inden]-1-yl}-N-[(4-fluorophenyl)methyl]-N-[1-methyl-3-(trifluoromethyl)azetidin-3-yl]acetamide] | 31.3 | 34.9 | 1 | 1 |  |  |  |  |  |  |  | 8 | 1400 (≈ 2.22 mM) | 7100 (≈ 11.3 mM)
CCn1cc(-c2ccc3c(c2)[C@H](F)C[C@]32NC(=O)N(CC(=O)N(Cc3ccc(F)cn3)C3(C(F)(F)F)CN(C)C3)C2=O)cn1 [Example 32, 2-[(1′S,3′R)-5′-(1-ethyl-1H-pyrazol-4-yl)-3′-fluoro-2,5-dioxo-2′,3′-dihydrospiro[imidazolidine-4,1′-inden]-1-yl]-N-[(5-fluoropyridin-2-yl)methyl]-N-[1-methyl-3-(trifluoromethyl)azetidin-3-yl]acetamide] | 15.4 | 26.6 | 5 | 0.4 |  |  |  |  |  |  |  | 53 | > 10000 | > 10000
CN1CC(N(Cc2ccc(C(F)(F)F)cc2)C(=O)CN2C(=O)N[C@]3(C[C@@H](F)c4cc(-c5cnn(C)c5)ccc43)C2=O)(C(F)(F)F)C1 [Example 35, 2-[(1′S,3′R)-3′-fluoro-5′-(1-methyl-1H-pyrazol-4-yl)-2,5-dioxo-2′,3′-dihydrospiro[imidazolidine-4,1′-inden]-1-yl]-N-[1-methyl-3-(trifluoromethyl)azetidin-3-yl]-N-{[4-(trifluoromethyl)phenyl]methyl}acetamide] | 31.2 | 33.7 | 72 | 5.2 |  |  |  |  |  |  |  |  |  | 
